Source: patent publication US12077503B2, “Substituted cyclic amides and their use as herbicides” (FMC CORPORATION, priority 2015, dated 2024)

How the values were obtained:
Format in all cases: in vivo
[1] = test system: barnyardgrass (Echinochloa crus-galli); experiment: Test G Pre-Emergence Protocol; details: Echinochloa crus-galli, pre-emergence, 312 h, evaluated after 13 days; for pest or weed control at 15.625 g/ha: 15.625 g ai/ha, read-out: Barnyard grass damage rating (100=total damage to plant; 0=no damage to plant); for pest or weed control at 62.5 g/ha: 62.5 g ai/ha, 100=total damage to plant, 0=no damage to plant, read-out: plant damage rating, Barnyardgrass; for pest or weed control at 250 g/ha: 250 g ai/ha, read-out: Barnyardgrass damage rating (100=total damage to plant; 0=no damage to plant)
How it was run: (§1)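 Pots of seeds in standard soil were grown for one day in a glasshouse (24/16 °C day/night, 14 h light, 65% humidity), then sprayed with compound in acetone/water 50:50 with 0.5% Tween 20 at 15.625, 62.5 or 250 g/ha. Damage was scored after 13 days on a 0 (none) to 100 (total) scale.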

corn (Zea mays) [2] = experiment: Test G Pre-Emergence Protocol; details: Zea mays, pre-emergence, 312 h, evaluated after 13 days; for plant injury at 15.625 g/ha: 15.625 g ai/ha; for plant injury at 15.625 g/ha / plant injury at 250 g/ha: read-out: Corn damage rating (100=total damage to plant; 0=no damage to plant); for plant injury at 62.5 g/ha: 62.5 g ai/ha, 100=total damage to plant, 0=no damage to plant, read-out: plant damage rating, Corn; for plant injury at 250 g/ha: 250 g ai/ha
How it was run: as §1

[3] = test system: giant foxtail (Setaria faberi); experiment: Test G Pre-Emergence Protocol; details: Setaria faberi, pre-emergence, 312 h, evaluated after 13 days; for pest or weed control at 15.625 g/ha: 15.625 g ai/ha; for pest or weed control at 15.625 g/ha / pest or weed control at 250 g/ha: read-out: Foxtail, Giant damage rating (100=total damage to plant; 0=no damage to plant); for pest or weed control at 62.5 g/ha: 62.5 g ai/ha, 100=total damage to plant, 0=no damage to plant, read-out: plant damage rating, Foxtail, Giant; for pest or weed control at 250 g/ha: 250 g ai/ha
How it was run: as §1

[4] = test system: ivy-leaved morning glory (Ipomoea hederacea); experiment: Test G Pre-Emergence Protocol; details: Ipomoea, pre-emergence, 312 h, evaluated after 13 days; for pest or weed control at 62.5 g/ha: 62.5 g ai/ha, 100=total damage to plant, 0=no damage to plant, read-out: plant damage rating, Morningglory, Ivy-leaved; for pest or weed control at 250 g/ha: 250 g ai/ha, read-out: Morningglory, Ivy-leaved damage rating (100=total damage to plant; 0=no damage to plant)
How it was run: as §1

[5] = test system: redroot pigweed (Amaranthus retroflexus); experiment: Test G Pre-Emergence Protocol; details: Amaranthus retroflexus, pre-emergence, 312 h, evaluated after 13 days; for pest or weed control at 15.625 g/ha: 15.625 g ai/ha; for pest or weed control at 15.625 g/ha / pest or weed control at 250 g/ha: read-out: Pigweed, Redroot damage rating (100=total damage to plant; 0=no damage to plant); for pest or weed control at 62.5 g/ha: 62.5 g ai/ha, 100=total damage to plant, 0=no damage to plant, read-out: plant damage rating, Pigweed, Redroot; for pest or weed control at 250 g/ha: 250 g ai/ha
How it was run: as §1

[6] = test system: velvetleaf (Abutilon theophrasti); experiment: Test G Pre-Emergence Protocol; details: Abutilon theophrasti, pre-emergence, 312 h, evaluated after 13 days; for pest or weed control at 15.625 g/ha: 15.625 g ai/ha; for pest or weed control at 15.625 g/ha / pest or weed control at 250 g/ha: read-out: Velvetleaf damage rating (100=total damage to plant; 0=no damage to plant); for pest or weed control at 62.5 g/ha: 62.5 g ai/ha, 100=total damage to plant, 0=no damage to plant, read-out: plant damage rating, Velvetleaf; for pest or weed control at 250 g/ha: 250 g ai/ha
How it was run: as §1

[7] = test system: barnyardgrass (Echinochloa crus-galli); experiment: Test G Post-Emergence Protocol; details: Echinochloa crus-galli, post-emergence, 312 h; for pest or weed control at 15.625 g/ha: 15.625 g ai/ha, evaluated after 13 days (100=total damage to plant; 0=no damage to plant), read-out: Barnyardgrass damage rating; for pest or weed control at 62.5 g/ha: 62.5 g ai/ha, read-out: Barnyardgrass damage rating (100=total damage to plant; 0=no damage to plant); for pest or weed control at 62.5 g/ha / pest or weed control at 250 g/ha: evaluated after 13 days; for pest or weed control at 250 g/ha: 250 g ai/ha, read-out: damage to plant, Barnyardgrass (100=total damage to plant; 0=no damage to plant)
How it was run: (§2)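 Pot-grown seedlings, 8 days old, raised in a glasshouse at 24/16 °C day/night with 14 h light and 65% humidity, were sprayed post-emergence with test compound in acetone/water (50:50) plus 0.5% Tween 20 at 15.625, 62.5 or 250 g/ha. Damage was scored visually 13 days later on a 0–100 scale (100 = total damage).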

corn (Zea mays) [8] = experiment: Test G Post-Emergence Protocol; details: Zea mays, post-emergence, 312 h; for plant injury at 15.625 g/ha: 15.625 g ai/ha, evaluated after 13 days (100=total damage to plant; 0=no damage to plant), read-out: Corn damage rating; for plant injury at 62.5 g/ha: 62.5 g ai/ha, read-out: Corn damage rating (100=total damage to plant; 0=no damage to plant); for plant injury at 62.5 g/ha / plant injury at 250 g/ha: evaluated after 13 days; for plant injury at 250 g/ha: 250 g ai/ha, read-out: damage to plant, Corn (100=total damage to plant; 0=no damage to plant)
How it was run: as §2

[9] = test system: giant foxtail (Setaria faberi); experiment: Test G Post-Emergence Protocol; details: Setaria faberi, post-emergence, 312 h; for pest or weed control at 15.625 g/ha: 15.625 g ai/ha, evaluated after 13 days (100=total damage to plant; 0=no damage to plant), read-out: Foxtail, Giant damage rating; for pest or weed control at 62.5 g/ha: 62.5 g ai/ha, read-out: Foxtail, Giant damage rating (100=total damage to plant; 0=no damage to plant); for pest or weed control at 62.5 g/ha / pest or weed control at 250 g/ha: evaluated after 13 days; for pest or weed control at 250 g/ha: 250 g ai/ha, read-out: damage to plant, Foxtail, Giant (100=total damage to plant; 0=no damage to plant)
How it was run: as §2

[10] = test system: ivy-leaved morning glory (Ipomoea hederacea); experiment: Test G Post-Emergence Protocol; details: Ipomoea, post-emergence, 312 h; for pest or weed control at 15.625 g/ha: 15.625 g ai/ha, evaluated after 13 days (100=total damage to plant; 0=no damage to plant), read-out: Morningglory, Ivy-leaved damage rating; for pest or weed control at 62.5 g/ha: 62.5 g ai/ha, read-out: Morningglory, Ivy-leaved damage rating (100=total damage to plant; 0=no damage to plant); for pest or weed control at 62.5 g/ha / pest or weed control at 250 g/ha: evaluated after 13 days; for pest or weed control at 250 g/ha: 250 g ai/ha, read-out: damage to plant, Morningglory, Ivy-leaved (100=total damage to plant; 0=no damage to plant)
How it was run: as §2

[11] = test system: redroot pigweed (Amaranthus retroflexus); experiment: Test G Post-Emergence Protocol; details: Amaranthus retroflexus, post-emergence, 312 h; for pest or weed control at 15.625 g/ha: 15.625 g ai/ha, evaluated after 13 days (100=total damage to plant; 0=no damage to plant), read-out: Pigweed, Redroot damage rating; for pest or weed control at 62.5 g/ha: 62.5 g ai/ha, read-out: Pigweed, Redroot damage rating (100=total damage to plant; 0=no damage to plant); for pest or weed control at 62.5 g/ha / pest or weed control at 250 g/ha: evaluated after 13 days; for pest or weed control at 250 g/ha: 250 g ai/ha, read-out: damage to plant, Pigweed, Redroot (100=total damage to plant; 0=no damage to plant)
How it was run: as §2

[12] = test system: velvetleaf (Abutilon theophrasti); experiment: Test G Post-Emergence Protocol; details: Abutilon theophrasti, post-emergence, 312 h; for pest or weed control at 15.625 g/ha: 15.625 g ai/ha, evaluated after 13 days (100=total damage to plant; 0=no damage to plant), read-out: Velvetleaf damage rating; for pest or weed control at 62.5 g/ha: 62.5 g ai/ha, read-out: Velvetleaf damage rating (100=total damage to plant; 0=no damage to plant); for pest or weed control at 62.5 g/ha / pest or weed control at 250 g/ha: evaluated after 13 days; for pest or weed control at 250 g/ha: 250 g ai/ha, read-out: damage to plant, Velvetleaf (100=total damage to plant; 0=no damage to plant)
How it was run: as §2

Row | SMILES | pest or weed control at 15.625 g/ha [1] | pest or weed control at 62.5 g/ha [1] | pest or weed control at 250 g/ha [1] | plant injury at 15.625 g/ha (corn (Zea mays) [2]) | plant injury at 62.5 g/ha (corn (Zea mays) [2]) | plant injury at 250 g/ha (corn (Zea mays) [2]) | pest or weed control at 15.625 g/ha [3] | pest or weed control at 62.5 g/ha [3] | pest or weed control at 250 g/ha [3] | pest or weed control at 62.5 g/ha [4] | pest or weed control at 250 g/ha [4] | pest or weed control at 15.625 g/ha [5] | pest or weed control at 62.5 g/ha [5] | pest or weed control at 250 g/ha [5] | pest or weed control at 15.625 g/ha [6] | pest or weed control at 62.5 g/ha [6] | pest or weed control at 250 g/ha [6] | pest or weed control at 15.625 g/ha [7] | pest or weed control at 62.5 g/ha [7] | pest or weed control at 250 g/ha [7] | other results
1 | CN1C[C@@H](c2ccc(C(F)(F)F)cc2)[C@H](C(=O)Nc2ccc(F)nc2)C1=O (racemic) [Compound 1555] | 0% | 20% | 70% | 0% | 0% | 20% | 0% | 30% | 70% | 0% | 0% | 40% | 30% | 70% | 0% | 0% | 0% | 0% | 0% | 40% | plant injury at 15.625 g/ha (corn (Zea mays) [8]): 0%; plant injury at 62.5 g/ha (corn (Zea mays) [8]): 10%; plant injury at 250 g/ha (corn (Zea mays) [8]): 0%; pest or weed control at 15.625 g/ha [9]: 0%; pest or weed control at 62.5 g/ha [9]: 0%; pest or weed control at 250 g/ha [9]: 50%; pest or weed control at 15.625 g/ha [10]: 0%; pest or weed control at 62.5 g/ha [10]: 10%; pest or weed control at 250 g/ha [10]: 50%; pest or weed control at 15.625 g/ha [11]: 0%; pest or weed control at 62.5 g/ha [11]: 0%; pest or weed control at 250 g/ha [11]: 20%; pest or weed control at 15.625 g/ha [12]: 0%; pest or weed control at 62.5 g/ha [12]: 0%; pest or weed control at 250 g/ha [12]: 10%
2 | CN1C[C@@H](c2ccc(C(F)(F)F)cc2)[C@H](C(=O)Nc2ccnc(Cl)c2)C1=O (racemic) [Compound 1571] | 0% | 0% | 0% | 0% | 0% | 0% | 0% | 0% | 20% | 0% | 0% | 0% | 0% | 0% | 0% | 0% | 0% | 0% | 0% | 0% | pest or weed control at 15.625 g/ha ([4]; 15.625 g ai/ha, read-out: Morning-glory, Ivy-leaved damage rating (100=total damage to plant; 0=no damage to plant)): 0%; plant injury at 15.625 g/ha (corn (Zea mays) [8]): 0%; plant injury at 62.5 g/ha (corn (Zea mays) [8]): 0%; plant injury at 250 g/ha (corn (Zea mays) [8]): 0%; pest or weed control at 15.625 g/ha [9]: 0%; pest or weed control at 62.5 g/ha [9]: 0%; pest or weed control at 250 g/ha [9]: 0%; pest or weed control at 15.625 g/ha [10]: 0%; pest or weed control at 62.5 g/ha [10]: 0%; pest or weed control at 250 g/ha [10]: 0%; pest or weed control at 15.625 g/ha [11]: 0%; pest or weed control at 62.5 g/ha [11]: 0%; pest or weed control at 250 g/ha [11]: 0%; pest or weed control at 15.625 g/ha [12]: 0%; pest or weed control at 62.5 g/ha [12]: 0%; pest or weed control at 250 g/ha [12]: 0%
